Read-outs that look alike come from different tables or passages of the source.
What was measured:
Pseudomonas fluorescens = assay: MIC/MBC by broth dilution, pure ILs; assay type: cell-based; conditions: 24 h; for MBC: read-out: MBC; for MIC: read-out: MIC
Excerpt: Within the Di3A (Dipartimento di Agricoltura, Alimentazione e Ambiente, University of Catania, Italy) microbial collection, two Gram-negative strains (Escherichia coli and Pseudomonas fluorescens) and one Gram-positive strain (Listeria monocytogenes) were studied in order to define the potential efficacy of ionic liquids in relation to the different structure of the bacterial cell wall.
For the pure ILs, the minimal inhibitory concentration (MIC) and minimal bactericidal concentration (MBC) were determined in Nutrient Broth (NB, Oxoid, Basingstoke, UK) medium by broth dilution method, according to the Clinical and Laboratory Standards Institute (CLSI).
All the bacterial strains were individually grown for 24 h at 35 or 27 °C for P. fluorescens, with shaking. After the incubation period, the cells were collected by centrifugation and re-suspended in sterile NB to obtain a stock culture of 10^9 CFU/mL. […]
Tubes were incubated at 35 or 27 °C in an orbital shaker and evaluated for the viable count of E. coli, P. fluorescens, and L. monocytogenes after 24 h by spread-plating 100 µL of each suspension on Nutrient Agar (NA, Oxoid, Basingstoke, UK) incubated for 24–48 h at 35 or 27 °C.
In this study, MIC and MBC are expressed in both µg/mL and µM to make the comparison with the literature data easy. Each experiment was performed in triplicate.

[1] = Thermogravimetric analysis (TGA), thermal stability; assay type: physicochemical; conditions: neat ILs; single-step degradation; 10 °C/min, nitrogen
Method: Thermal stability and kinetic parameters of the synthesised ILs were investigated using the TA instruments Q500 thermogravimetric analyser (Milan, Italy). A certain amount of sample (4–5 mg) was placed in a platinum pan and heated at 10 °C min^−1 from 40 to 600 °C under a flow of nitrogen (60 mL/min).
Thermogravimetric analyses were performed to evaluate the thermal stability of ILs and PVC/IL blends. Before testing, the samples were subjected to drying cycles in a vacuum stove for 24 h at 50–60 °C, according to the thermal features of ILs, mainly considering their melting points. The ILs C9mimBF4, C10mimBF4, C9mimDMSIP, and C10mimDMSIP, which are liquid at RT, were left to dry at 30 °C for 4–5 h. […] Considering this, the 40–600 °C degradation temperature range was adopted for the subsequent TGA analyses. […] Furthermore, platinum pans and nitrogen as purge gas were used, and the temperature at which 5% weight loss occurred was defined as Tonset, aiming to avoid the decomposition differences due to pan and gas types, as well as the uncertainty from the manual determination of the Tonset tangent point, respectively. Many features can influence the thermal stability of ILs, mainly the coordinating nature of the anion. Indeed, the highly coordinating halide anions (Cl, Br) display a thermal stability lower than that of poor coordinating anions (PF6). The type of cation core influences the thermal stability of ILs, with a decreasing temperature resistance in the following order: pyrrolidinium, imidazolium, pyridinium, and non-cyclic tetra-alkyl ammonium. The increasing alkyl chain length of the imidazolium cation and branching of the alkyl substituents induce a reduction in thermal stability. Furthermore, a decrease in thermal stability is determined by the presence of alkoxylated side chains in methylimidazolium, piperidinium, and pyrrolidinium cations.
As the industrial production of end products usually involves processing methodologies during which undesirable degradation processes could affect materials’ performance, the thermal stability of neat PVC and PVC/IL film blends was analysed. As detailed for TGA analyses of pure ILs, the stability of the PVC/IL blends was determined at heating runs of 10 °C/min from 40 to 600 °C under a nitrogen atmosphere using a platinum pan. These things considered, the temperature at 5% weight loss was considered as Tonset.

[2] = NI = no inhibition at IL maximum concentration used (1000 µM)

Q: With `CCCCCCCCCCn1cc[n+](C)c1.F[B-](F)(F)F` [C10mimBF4] as the molecule, how does the MBC (Pseudomonas fluorescens; 10^6 CFU/mL) read?
A: 155 µg/mL

Q: And the MIC (Pseudomonas fluorescens; 10^6 CFU/mL)?
A: 38.8 µg/mL

Q: And the MBC (Pseudomonas fluorescens; [2])?
A: 500 µM

Q: And the MIC (Pseudomonas fluorescens; [2])?
A: 125 µM

Q: And the “Td, maximum degradation temperature” value [1]?
A: 417.2 °C
